Source: US20240327406A1, “POTASSIUM CHANNEL MODULATORS” (Autifony Therapeutics Limited, priority 2021, published 2024)

Experiment: In vitro metabolic stability, rat liver microsomes
Assay type: in vitro ADME
Conditions: CLint expressed as mL/min/g liver
Description: The objective of this study was to determine metabolic stability of test items in rat and human liver microsomes. Verapamil and dextromethorphan were used as positive controls for microsomal incubation.
Incubation medium was prepared by combining 11.2 mL of potassium phosphate monobasic and 38.8 mL of potassium phosphate dibasic, diluted to 1 L with water. Cryopreserved microsomes were thawed and kept on ice until use. Microsomes were then diluted in incubation to a protein concentration of 0.56 mg/mL. […]
NADPH regenerating system solution was prepared by dissolving 1.7 mg of NADP, 7.8 mg of G6P and 6 units of G6P-Dehydrogenase in 1 mL of 2% sodium bicarbonate solution (prepared by dissolving 20 g of NaHCO3 in 1 L of water).
Test compounds were separately dissolved in DMF to obtain 10 mM stock solutions that were further diluted in water/acetonitrile 50/50 (v/v) to obtain the corresponding 50 μM working solutions. Verapamil and dextromethorphan were dissolved in DMF in order to obtain a 10 mM verapamil solution and 10 mM dextromethorphan solution. These solutions were then diluted in the incubation medium in order to obtain a 50 μM verapamil working solution and a 50 μM dextromethorphan working solution.
800 μL-aliquots of NADPH regenerating system were pre-warmed at 37° C. for 5 minutes. 5 μL of 50 µM test compounds, verapamil or dextromethorphan were added to 445 μL of the 0.56 mg/mL microsomes solution and the incubation mixture was pre-warmed in a 96 deep well 2 mL plate (incubation plate) at 37° C. for 5 minutes. The incubation reactions were initiated by adding 50 μL of pre-warmed NADPH regenerating system to the incubation mixtures. 50 μL aliquots were taken from incubation mixtures at: 0, 3, 6, 9, 15, and 30 minutes and the reactions were stopped by adding 100 μL of aceronitrile with the corresponding internal standard. Samples were then diluted with 120 μL of water (final organic solvent percentage at 37%) and centrifuged at 3000 rpm for 10 minutes, prior the LC-MS/MS analysis.
Metabolic stability was calculated from the peak area ratio of the remaining test compound with internal standard versus time. The intrinsic clearance (CLint) was determined from the first order elimination constant k (min^−1) (obtained from GraphPad by plotting the natural logarithm of the peak area ratio of the remaining test item with internal standard versus time), using the actual volume of the incubation V (mL), the amount of hepatocytes in the incubation M (million cells) and the hepatocellularity number per a liver Hn (120 for human).

| SMILES | Cli rat |
| --- | --- |
| Cc1ccc(Oc2ncc(-n3c(=O)[nH]c4cccnc43)cn2)cc1OC(F)(F)F [Example 32, 3-[2-[4-methyl-3-(trifluoromethoxy)phenoxy]pyrimidin-5-yl]-1H-imidazo[4,5-b]pyridin-2-one] | 0.9 mL/min/g |
| Cc1ccc(Oc2ccc(-n3c(=O)[nH]c4cccnc43)cn2)cc1OC(F)(F)F [Example 4, 3-[6-[4-methyl-3-(trifluoromethoxy)phenoxy]-3-pyridyl]-1H-imidazo[4,5-b]pyridin-2-one] | 0.9 mL/min/g |
| O=c1[nH]c2cccnc2n1-c1cnc(Oc2cccc(OC(F)(F)F)c2)nc1 [Example 17, 3-[2-[3-(trifluoromethoxy)phenoxy]pyrimidin-5-yl]-1H-imidazo[4,5-b]pyridin-2-one] | <0.5 mL/min/g |
